Data published in patent US10975123B2, “Mutant Akt-specific capture agents, compositions, and methods of using and making” (California Institute of Technology, priority 2014, dated 2021).
Changes are numbered by the printed parent chain. Entries after “also recorded” stand apart in the source; their conditions may differ. Where a SMILES comes first, the peptide text is derived from it. [ ]: non-standard residue; d: D form.

What was measured:
[1] = molecular target: T1, E17K 33-mer epitope (PH Domain fragment of Akt1) (Homo sapiens, UniProt P31749, E17K/H13K); test: Fluorescence polarization binding to E17K mutant epitope; settings: yleaf peptide 4, fluorescence polarization in solution, triplicate
T1 construct: made in house; host or cells: chemical synthesis (Fmoc SPPS)
T1 sequence (P31749 1-33 H13K/E17K limits assumed): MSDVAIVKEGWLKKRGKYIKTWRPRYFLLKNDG
Protocol: FIG. 2: Anchor ligand structure and characterization. (FIG. 2A) The peptide anchor ligand, yleaf (SEQ ID NO: 43), which was discovered using the epitope-targeting technique. The different sets of R groups indicate the modifications that were made to perform the various experiments described. (FIG. 2B) Point ELISA for specificity obtained by immobilizing biotinylated yleaf (SEQ ID NO: 43) anchor ligand 2 onto a Neutravidin plate, then incubating with a 6 His-tagged epitope (“6 His” disclosed as SEQ ID NO: 4) 3. […] (FIG. 2C) Binding curves of yleaf (SEQ ID NO: 43) anchor ligand 4 to the full-length WT or E17K mutant Akt1 proteins obtained in solution by fluorescence polarization. A saturation point for the WT ligand was not reached due to the prohibitively high protein concentration required. (FIG. 2D) Full binding curves of yleaf (SEQ ID NO: 43) anchor ligand 4 to the WT or E17K mutant epitopes. […] All assays were performed in triplicate and averaged. Error bars indicate standard deviation.
The selectivity of the yleaf (SEQ ID NO: 43) peptide for the E17K 33-mer epitope was also tested in an ELISA assay format. For these assays, the WT or E17K 33-mer peptide fragments were captured using the PEG-biotin-modified yleaf (SEQ ID NO: 43) ligand immobilized on a neutravidin-coated plate.

[2] = molecular target: T2, WT 33-mer fragment (6His-tagged) (Homo sapiens, UniProt P31749, H13K); test: HPLC-detected immunoprecipitation (pulldown), WT 33-mer; assay type: binding; settings: 50 μM epitope, overnight 4° C., guanidine elution, in words
T2 construct: made in house; host or cells: chemical synthesis (Fmoc SPPS)
T2 sequence (P31749 1-33 H13K limits assumed): T1 sequence (P31749 1-33 H13K/E17K limits assumed) with K17E
Excerpt: (§1) The label-modified yleaf (SEQ ID NO: 43) peptide (FIG. 2a and FIG. 12) was subjected to a variety of binding assays against the synthesized WT and E17K 33-mer PHD fragments prepared without the biotin label and alkyne click handle. First, the yleaf (SEQ ID NO: 43) peptide was used in immunoprecipitation assays to pull-down either the WT or E17K mutant 6His-tagged (SEQ ID NO: 4) 33-mer peptide fragments (FIGS. 13 and 14), as opposed to the full-length proteins that were used to initially validate the candidates. Typical immunoprecipitation assays involve western blotting to estimate the amount of protein binding, but 33-mer peptide fragments are not easily quantified on a blot. Because of this, the amount of peptide epitope precipitated in these assays was quantified via injection on an analytical HPLC. These assays further confirmed preferential yleaf (SEQ ID NO: 43) ligand binding to the E17K 33-mer epitope relative to the WT epitope (FIG. 15).
(§2) Pulldown assays with the biotinylated anchor and his-tagged 33-mer epitope were performed to verify epitope targeting. […] Because small peptide fragments like the 33-mer epitope are difficult to transfer to and detect on the nitrocellulose membrane as for a traditional Western blot, the amount of binding in these assays was detected via HPLC. […]

[3] = molecular target: T3, E17K 33-mer fragment (6His-tagged) (Homo sapiens, UniProt P31749, E17K/H13K); test: HPLC-detected immunoprecipitation (pulldown), E17K 33-mer; assay type: binding; settings: 50 μM epitope, overnight 4° C., guanidine elution, in words
T3 construct: made in house; host or cells: chemical synthesis (Fmoc SPPS)
T3 sequence (P31749 1-33 H13K/E17K limits assumed): T1 sequence (P31749 1-33 H13K/E17K limits assumed)
Excerpt: as §1, §2

[4] = molecular target: T4, E17K PH Domain binding to PIP3 (Homo sapiens, UniProt P31749, E17K); test: PIP3 agarose inhibition assay, E17K; assay type: biochemical; settings: ligand 2.38 μM (10x protein), protein 234 nM, western blot, in words
T4 construct: 2 μg of either wildtype or mutant PH Domain-GFP protein (234 nM); made in house; host or cells: HEK-293-6E (used as cell lysate, not purified)
Excerpt: The yleaf ligand, the biligand, and the triligand were all tested for their ability to block the E17K PHD binding with PIP3. For this test, PIP3-coated resin (Echelon Biosciences) was used to mimic the PHD interaction with the cell membrane, and could be used to bind the protein as in an immunoprecipitation assay^22. The presence of an effective blocking compound would reduce the ability of the resin to capture the protein, and would thus appear as a diminished signal in the corresponding western blot assay. A control lane containing no capture agent was used to show baseline binding of the protein to the PIP3 resin. […] In an expanded study, we compared the amount of E17K and WT PH domain binding relative to the amount of added triligand (FIG. 5e).
PIP3 Agarose beads (Echelon) were used to detect for the inhibition of PH Domain binding to its substrate, PIP3, upon incubation with the anchor candidate peptide ligands. To test the inhibition of each of the ligands, anchor biligand and triligand, 20 μL of resin slurry was added to each of four tubes and washed three times with 1×TBS. Protein, 2 μg (234 nM) of E17K mutant, was preincubated for one hour at room temperature with either DMSO (no protein blank), anchor, biligand or triligand at 2.38 μM (10× in relation to protein) in 200 μL of 1×TBS. For the control, mutant PH Domain was incubated with 1×TBS and 1 μL […] to mimic the ligand conditions. These protein samples were then added to PIP3 agarose in a Spin-X tube and incubated at room temperature for two hours. The resin was washed three times with 1×TBS with 0.25% IGEPAL CA-630, spun out to dry completely, then denatured with 50 μL 3×SDS gel loading buffer for 10 min at 95° C. The gel loading buffer was spun out of the resin and detected via western blot as per the Streptavidin-Agarose Pulldowns. Inhibition was indicated by a decrease in the amount of PH Domain that was pulled down by the resin.
Expanded inhibition blots with either WT of E17K mutant protein were performed in a similar fashion. Twelve tubes of 20 μL of PIP3 agarose were washed three times with 1×TBS. 2 μg of either wildtype or mutant PH Domain-GFP protein (234 nM) in 200 uL 1×TBS were preincubated for 30 minutes with differing concentrations of triligand: 0.1 eq (23.4 nM), 1 eq (234 nM), 10 eq (2.34 μM), 100 eq (23.4 μM), and 1000 eq (234 μM). The protein and triligand solutions were then incubated with the PIP3 resin for 2 hours at room temperature. The resins were washed, eluted, and blotted as per all PH Domain western blots.

T4 sequence (P31749 5-108 E17K limits assumed): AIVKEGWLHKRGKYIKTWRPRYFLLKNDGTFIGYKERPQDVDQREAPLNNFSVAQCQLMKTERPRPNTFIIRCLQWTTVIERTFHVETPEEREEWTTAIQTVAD

Structure (SMILES): CC(C)C[C@@H](NC(=O)[C@H](N)Cc1ccc(O)cc1)C(=O)N[C@H](CCC(=O)O)C(=O)N[C@H](C)C(=O)N[C@H](Cc1ccccc1)C(N)=O [yleaf] (H-[dY][dL][dE][dA][dF]-NH2; N-terminus assumed)
- Kd [1]: 328 ± 96 nM
- amount of WT 33-mer fragment pulled down (HPLC peak) [2]: the least of the WT fragment
- amount of E17K 33-mer fragment pulled down (HPLC peak) [3]: preferential; also recorded: pulls down the most of the E17K 33mer fragment
- inhibition of E17K PH Domain binding to PIP3-coated resin [4]: did not exhibit evidence of inhibition; also recorded: no change in E17K binding ability
